Measured values as given in PubChem BioAssay (NCI).
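Protocol summary: plate cells (96-well), add compound at 5 concentrations, incubate 48 h, interpolate endpoints linearly. At the TGI there is no net growth.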

Columns and labels:
Experiment in all cases: inhibition of tumour cell growth, NCI panel, 48 h
SK-OV-3 ovarian = tested on: SK-OV-3 ovarian
DMS 114 small cell lung = tested on: DMS 114 small cell lung
SNB-78 CNS = tested on: SNB-78 CNS
NCI-H522 lung = tested on: NCI-H522 lung
KM20L2 colon = tested on: KM20L2 colon
MOLT-4 leukemia = tested on: MOLT-4 leukemia
DLD-1 colon = tested on: DLD-1 colon
HOP-18 NSCLC = tested on: HOP-18 NSCLC
DMS 273 small cell lung = tested on: DMS 273 small cell lung
OVCAR-4 ovarian = tested on: OVCAR-4 ovarian
M19-MEL melanoma = tested on: M19-MEL melanoma
LXFL 529 NSCLC = tested on: LXFL 529 NSCLC
XF 498 CNS = tested on: XF 498 CNS
PC-3 prostate = tested on: PC-3 prostate

SMILES	TGI (SK-OV-3 ovarian)	TGI (DMS 114 small cell lung)	TGI (SNB-78 CNS)	TGI (NCI-H522 lung)	TGI (KM20L2 colon)	TGI (MOLT-4 leukemia)	TGI (DLD-1 colon)	TGI (HOP-18 NSCLC)	TGI (DMS 273 small cell lung)	TGI (OVCAR-4 ovarian)	TGI (M19-MEL melanoma)	TGI (LXFL 529 NSCLC)	TGI (XF 498 CNS)	TGI (PC-3 prostate)
O=C1NC2OCC(O)C(O)C2O1 (stereo not drawn)	> 100 µM	> 100 µM	> 100 µM	> 100 µM	> 100 µM	> 100 µM	> 100 µM	> 100 µM	> 100 µM	> 100 µM	> 100 µM	> 100 µM		
COc1cccc(/C=C2\C(=O)N(C(=O)c3ccc(NC(C)=O)cc3)N=C2C)c1		> 100 µM	> 100 µM	> 100 µM		> 100 µM	> 100 µM		> 100 µM	> 100 µM	> 100 µM		> 100 µM	
CC(C)N1CN(C(C(=O)N[C@@H]2C(=O)N3C2SC(C)(C)C3C(=O)O)c2ccccc2)CSC1=S (stereo partly drawn)	> 100 µM	> 100 µM	> 100 µM	72.1 µM	> 100 µM	> 100 µM	> 100 µM	> 100 µM	> 100 µM	> 100 µM	> 100 µM	> 100 µM	> 100 µM	
Cc1ccc(S(=O)(=O)OC(c2ccc(Cl)cc2Cl)C2OC(=O)c3ccccc32)cc1 (stereo not drawn)		> 100 µM	> 100 µM	> 100 µM	> 100 µM	> 100 µM			> 100 µM	> 100 µM	> 100 µM	> 100 µM	> 100 µM	
COc1ccc(-c2cc(=O)c3ccccc3[nH]2)c(OC)c1	> 100 µM	> 100 µM	> 100 µM	> 100 µM	> 100 µM	> 100 µM	> 100 µM		> 100 µM		> 100 µM	> 100 µM		
CCOC(=O)C(Cc1cn(S(=O)(=O)c2ccccc2)c2ccccc12)(NC(C)=O)C(=O)OCC		80.4 µM		52.5 µM	> 100 µM	61.4 µM	> 100 µM		> 100 µM	> 100 µM	> 100 µM	95.5 µM	> 100 µM	
C=CCc1cc(-c2cc(CC=C)c(O)c(CNCCCl)c2)cc(CNCCCl)c1O		42.2 µM	> 100 µM	32.8 µM	33.9 µM	53.4 µM	57 µM			56.7 µM	32.3 µM	29.3 µM		
CN(C)/C=N/S(=O)(=O)c1nn2c(C=O)c(-c3ccc(Cl)cc3)nc2s1	29.5 µM			2.12 µM		2.68 µM				3.58 µM				9.38 µM
CCn1c(SCC(=O)NNC(=S)Nc2ccc(C)cc2)nc2ccccc2c1=O	> 100 µM			> 100 µM		> 100 µM				> 100 µM				> 100 µM
CCCCCCCCCCN(CCCCCCCCCC)C(=O)COc1c2cc(C(C)(C)C)cc1Cc1cc(C(C)(C)C)cc(c1OCC(=O)N(CCCCCCCCCC)CCCCCCCCCC)Cc1cc(C(C)(C)C)cc(c1OCC(=O)N(CCCCCCCCCC)CCCCCCCCCC)Cc1cc(C(C)(C)C)cc(c1OCC(=O)N(CCCCCCCCCC)CCCCCCCCCC)C2	27.6 µM			10.2 µM		6.34 µM				22.4 µM				21.8 µM
C=C1CC[C@H](O)C(C)(C)[C@@H]1CC/C(C)=C/CC/C=C(\C)CC/C=C(\C)CCC=C(C)C	> 100 µM			> 100 µM		> 100 µM				> 100 µM				> 100 µM
C=C1CCC23CC(CC[C@@H]2[C@@]12C[C@@H](c1ccoc1)OC2=O)OC3=O (stereo partly drawn)	> 100 µM	> 100 µM	> 100 µM	> 100 µM	> 100 µM	> 100 µM	> 100 µM	> 100 µM	> 100 µM	> 100 µM	> 100 µM	> 100 µM	> 100 µM	
CNc1nc2n(CCO)c(-c3ccccc3)c(-c3ccccc3)nc-2c(=O)n1	> 50 µM			> 50 µM		> 50 µM				> 50 µM				> 50 µM
COc1ccc(N2C(=O)c3cc(C)cnc3S2(=O)=O)cc1	> 100 µM			> 100 µM		> 100 µM				> 100 µM				> 100 µM
COC(=O)CCc1cc(O)c2c(c1)C(C(=O)OC)C(c1ccc(O)c(O)c1)O2 (stereo not drawn)	> 93 µM			> 100 µM		> 88.8 µM				> 100 µM				> 100 µM
CNC(=O)N1CN(c2ccccc2)C2(CCN(CCCC3(c4ccc(F)cc4)OCCO3)CC2)C1=O	> 100 µM			> 100 µM		> 100 µM				> 100 µM				> 100 µM
CCNc1cc2c(cc1O)CC[C@@H]1[C@@H]2CC[C@]2(C)[C@@H](O)CC[C@@H]12	> 39 µM			11.8 µM		46.7 µM				21.5 µM				22.8 µM
CC(=O)OC1(C)C=CC(=O)C=C1	> 100 µM			24.2 µM		> 100 µM				> 100 µM				> 100 µM
CCO/N=C(/N)c1ncn(Cc2ccccc2)c1NCC(OCC)OCC	> 100 µM	> 100 µM	> 100 µM	> 100 µM	> 100 µM	> 100 µM	> 100 µM		> 100 µM		> 100 µM	> 100 µM	> 100 µM	
CSC1=N/C(=C\c2ccccc2)C(=O)N1CN1CCCCC1	> 100 µM			> 100 µM		> 100 µM				56.4 µM				> 100 µM
Cc1ccccc1N=Nc1ccc(N/N=C2/CCCNC2=O)c(C)c1	> 100 µM			> 100 µM		> 100 µM				> 100 µM				> 100 µM
COC(=O)C(COC(C)=O)NC(=O)/C=C/c1ccc(O)c(OC(C)=O)c1 (stereo not drawn)	> 100 µM			40.4 µM		> 100 µM				> 100 µM				> 100 µM
COc1cc(OC)c2c(=O)c(OC)c(-c3ccc4c(c3)OCO4)oc2c1	71.7 µM			92.3 µM		> 100 µM				> 100 µM				> 100 µM
COC(=O)C(=Cc1cc(OC)c(OC)c(OC)c1-c1cc2c(cc1C(C)=O)OCO2)C(=O)OC	> 211 µM	99.4 µM		62.2 µM	62.8 µM	> 211 µM	53.7 µM	87.4 µM	69 µM		75 µM	65.9 µM	59.7 µM	
C/C=C(/C)C(=O)O[C@H]1C[C@@H]2[C@@H](O)c3occ(C)c3C[C@]2(C)[C@@H](C)C1	30.9 µM			30.6 µM		37.1 µM				32.6 µM				35.2 µM
O=[N+]([O-])c1cccc2nc3ccccc3c(NCCC[N+]3([O-])CCOCC3)c12	1.53 µM			0.462 µM		> 100 µM				0.455 µM				2.22 µM
CC(C)(C)C1=CC(=C(c2ccc(-c3c4nc(c(-c5ccc(C(=C6C=C(C(C)(C)C)C(=O)C(C(C)(C)C)=C6)c6cc(C(C)(C)C)c(O)c(C(C)(C)C)c6)cc5)c5ccc([nH]5)c(-c5ccc(C(=C6C=C(C(C)(C)C)C(=O)C(C(C)(C)C)=C6)c6cc(C(C)(C)C)c(O)c(C(C)(C)C)c6)cc5)c5nc(c(-c6ccc(C(=C7C=C(C(C)(C)C)C(=O)C(C(C)(C)C)=C7)c7cc(C(C)(C)C)c(O)c(C(C)(C)C)c7)cc6)c6ccc3[nH]6)C=C5)C=C4)cc2)c2cc(C(C)(C)C)c(O)c(C(C)(C)C)c2)C=C(C(C)(C)C)C1=O	> 100 µM			> 100 µM		> 100 µM				> 100 µM				> 100 µM
O=C1CCCC2(c3ccccc3)Nc3ccccc3N12 (stereo not drawn)	> 100 µM			> 100 µM		> 100 µM				> 100 µM				> 100 µM
O=c1c2cc(S(=O)(=O)O)ccc2nc(COc2ccc(Oc3ccc(Cl)cc3Cl)cc2)n1-c1ccc(Cl)cc1Oc1c(Cl)cccc1Cl	63.2 µM			48.4 µM		> 100 µM				> 100 µM				> 100 µM
